Source: patent US20260256751A1, “COMBINATION OF BETA-2-ADRENERGIC RECEPTOR AGONISTS AND GLP-1 RECEPTOR AGONISTS FOR USE IN TREATING HYPERGLYCAEMIA” (ATROGI AB, priority 2023, published 2026)

Legend:
[1] = system: differentiated L6-myotubes; test: Glucose uptake screen (Biological example 1 of WO 2019/053427); format: cell-based; settings: compound at 10 μM, activity relative to isoproterenol at 10 μM, read-out: Biological example 1 of WO 2019/053427 (GU)
Outline: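 Rat L6 myoblasts were differentiated into myotubes over 7 days in 2% FBS, then serum-starved overnight. Cells were stimulated with 1×10^−5 M compound plus β2 antagonist ICI-118551 for 1 h 40 min and re-dosed for 20 min in glucose-free medium. Uptake of 50 nM ^3H-2-deoxyglucose over 10 min was counted after NaOH lysis.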

[2] = system: differentiated L6-myotubes; test: cAMP production relative to isoprenaline (Biological example 2 of WO 2019/053427); format: cell-based; settings: 0.25 h, compound at 10 μM, activity relative to isoproterenol at 10 μM
Outline: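 Differentiated L6 myotubes stimulated 15 min with test compound or isoprenaline, each at final 1×10^−5 M, in HBSS with 1% BSA, 5 mM HEPES, 1 mM IBMX, pH 7.4. cAMP production by the compound expressed relative to that induced by the same concentration of isoprenaline.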

| Compound | Emax at 10 µM [1] [%] | Emax at 10 µM [2] [%] |
| --- | --- | --- |
| CC(=O)N(Cc1ccccc1)[C@H]1CC[C@H](C[C@@H]2CC[C@H]([C@H](O)c3cccc(F)c3)N2)CC1 [Compound 482, N-[(1S,4r)-4-({(2S,5R)-5-[(R)-(m-fluorophenyl)hydroxymethyl]-2-pyrrolidinyl}methyl)cyclohexyl]-N-benzylacetamide] | < 25 | < 25 |
| CC(C)(CC[C@H]1CC[C@@H](O)CC1)NC[C@H](O)c1cncc(F)c1 [Compound 296, (R)-2-{1,1-dimethyl-3-[(1s,4R)-4-hydroxycyclohexyl]propylamino}-1-(5-fluoro-3-pyridyl)-1-ethanol] | > 75 | < 25 |
| CCC[C@@H]1CCC[C@H]([C@@H](O)c2ccccc2F)N1 [Compound 107, (S)-[(2R,6R)-6-propyl-2-piperidyl](o-fluorophenyl)methanol] | 25 to 50 | < 25 |
| CO[C@H]1CC[C@H](CCC(C)(C)NC[C@H](O)c2cccc(F)c2)CC1 [Compound 265, (R)-2-{1,1-dimethyl-3-[(1r,4S)-4-methoxycyclohexyl]propyl-amino}-1-(m-fluorophenyl)-1-ethanol] | 50 to 75 | < 25 |
| O[C@@H](c1cncc(F)c1)C12CCC(CCc3ccc(OC(F)(F)F)cc3)(CC1)N2 [Compound 543, (S)-(5-fluoro-3-pyridyl){4-[2-(p-trifluoromethoxyphenyl)ethyl]-7-azabicyclo[2.2.1]hept-1-yl}methanol] | < 25 | < 25 |
| CCCCNCC(O)c1ccc(O)cc1 (stereo not drawn) [Compound 1, 2-(butylamino)-1-(p-hydroxyphenyl)-1-ethanol] | > 75 | < 25 |
| O[C@@H](c1cccc(F)c1)C12CCC(Cc3ccccc3)(CC1)N2 [Compound 389, (S)-(4-benzyl-7-azabicyclo[2.2.1]hept-1-yl)(m-fluorophenyl)methanol] | 50 to 75 | < 25 |
| CC(C)(C)NC[C@H](O)c1cncc(O)c1 [Compound 100, 5-[(R)-2-(tert-butylamino)-1-hydroxyethyl]-3-pyridinol] | > 75 | < 25 |
| CC(=O)N[C@H]1CC[C@H](CC(C)(C)NC[C@@H](O)c2cccc(C#N)n2)CC1 [Compound 427, N-[(1R,4r)-4-{2-[(R)-2-(6-cyano-2-pyridyl)-2-hydroxyethylamino]-2-methylpropyl}cyclohexyl]acetamide] | < 25 | < 25 |
| CC(C)(NC[C@H](O)c1cccc(F)c1)[C@H]1CC[C@H](OCC(=O)O)CC1 [Compound 402, [(1R,r)-4-{1-[(R)-2-(m-fluorophenyl)-2-hydroxyethylamino]-1-methylethyl}cyclohexyloxy]acetic acid] | 50 to 75 | < 25 |
| CC(C)(CC[C@H]1CC[C@H](NS(C)(=O)=O)CC1)NC[C@H](O)c1cncc(F)c1 [Compound 362, (R)-2-{1,1-dimethyl-3-[(1r,4R)-4-(mesylamino)cyclohexyl]propylamino}-1-(5-fluoro-3-pyridyl)-1-ethanol] | 50 to 75 | < 25 |
| Cc1ncccc1[C@@H](O)CNC(C)(C)C [Compound 376, (R)-2-(tert-butylamino)-1-(2-methyl-3-pyridyl)-1-ethanol] | > 75 | 25 to 50 |
| O[C@H](c1cncc(F)c1)C12CCC(C/C=C/c3ccccc3)(CC1)N2 [Compound 530] | > 75 | 25 to 50 |
| CC1(C)CCC[C@H]([C@H](O)c2cccc(F)c2)N1 [Compound 102, (R)-[(R)-6,6-dimethyl-2-piperidyl](m-fluorophenyl)methanol] | 50 to 75 | < 25 |
| O[C@H](c1cccc(F)c1)C12CCC(CCCc3ccccc3)(CC1)N2 [Compound 536, (R)-(m-fluorophenyl){4-(3-phenylpropyl)-7-azabicyclo[2.2.1]hept-1-yl}methanol] | > 75 | 25 to 50 |
| O[C@H](c1cccc(F)c1)C12CCC(Cc3ccccc3)(CC1)N2 [Compound 388, (R)-(4-benzyl-7-azabicyclo[2.2.1]hept-1-yl)(m-fluorophenyl)methanol] | > 75 | 25 to 50 |
| CC(C)(C[C@H]1CC[C@H](NC(=O)C2CCC2)CC1)NC[C@H](O)c1cccc(F)c1 [Compound 431, N-[(1R,4r)-4-{2-[(R)-2-(m-fluorophenyl)-2-hydroxyethylamino]-2-methylpropyl}cyclohexyl]cyclobutanecarboxamide] | > 75 | 50 to 75 |
| CC12CC(C1)[C@@H]([C@@H](O)c1cncc(F)c1)N2 [Compound 221, (S)-{(S)-1-methyl-2-azabicyclo[2.1.1]hex-3-yl}(5-fluoro-3-pyridyl)methanol] | 50 to 75 | < 25 |
| CO[C@H]1CC[C@H](C[C@@H]2CC[C@H]([C@@H](O)c3cncc(F)c3)N2)CC1 [Compound 332, (S)-[(2R,5S)-5-{[(1r,4S)-4-methoxycyclohexyl]methyl}-2-pyrrolidinyl](5-fluoro-3-pyridyl)methanol] | 25 to 50 | < 25 |
| CCC[C@H]1CCC[C@H]([C@@H](O)c2ccc(F)cc2)N1 [Compound 105, (S)-[(2R,6S)-6-propyl-2-piperidyl](p-fluorophenyl)methanol] | 25 to 50 | < 25 |
| O[C@@H](c1cccc(F)c1)C12CCC(CCc3ccc(OC(F)(F)F)cc3)(CC1)N2 [Compound 544, (S)-(m-fluorophenyl){4-[2-(p-trifluoromethoxyphenyl)ethyl]-7-azabicyclo[2.2.1]hept-1-yl}methanol] | < 25 | < 25 |
| CCCCNC[C@H](O)c1ccccc1F [Compound 79, (R)-2-(butylamino)-1-(o-fluorophenyl)-1-ethanol] | > 75 | < 25 |
| COC(=O)[C@H]1CC[C@@H](CCC(C)(C)NC[C@H](O)c2cncc(F)c2)CC1 [Compound 349, methyl (1S,4s)-4-{3-[(R)-2-(5-fluoro-3-pyridyl)-2-hydroxyethylamino]-3-methylbutyl}cyclohexanecarboxylate] | > 75 | 25 to 50 |
| CC(=O)N[C@H]1CC[C@@H](CNC[C@H](O)c2cccc(F)c2)CC1 [Compound 307, N-[(1S,4s)-4-{[(R)-2-(m-fluorophenyl)-2-hydroxyethylamino]methyl}cyclohexyl]acetamide] | 50 to 75 | < 25 |
| COc1ccc(C[C@H]2CC[C@H]([C@@H](O)c3cncc(F)c3)N2)cc1 [Compound 380, (S)-{(2R,5R)-5-[(p-methoxyphenyl)methyl]-2-pyrrolidinyl}(5-fluoro-3-pyridyl)methanol] | > 75 | < 25 |
| CC(C)(C[C@H]1CC[C@@H](N)CC1)NC[C@H](O)c1cccc(C#N)n1 [Compound 418, 6-[(S)-2-{1,1-dimethyl-2-[(1s,4R)-4-aminocyclohexyl]ethylamino}-1-hydroxyethyl]-2-pyridinecarbonitrile] | 50 to 75 | < 25 |
| CCC[C@H]1CCC[C@@H]([C@@H](O)c2cccc(F)c2)N1 [Compound 119, (S)-[(2S,6S)-6-propyl-2-piperidyl](m-fluorophenyl)methanol] | 25 to 50 | < 25 |
